# According to article PMC8667898, “Topo II inhibition and DNA intercalation by new phthalazine-based derivatives as potent anticancer agents: design, synthesis, anti-proliferative, docking, and in vivo studies” (Journal of Enzyme Inhibition and Medicinal Chemistry, 2021):
# Tests used:
# [1] = tested on: MCF-7 cells (human breast adenocarcinoma); assay: MTT anti-proliferative assay, MCF-7; format: cell-based; conditions: Homo sapiens, MCF7, MTT, mean ± SD of three separate experiments; read-out: In vitro Cytotoxicity IC50 MCF-7
# Procedure: Anti-proliferative activities of the target compounds were assessed via the standard MTT method[38–40] against three cancer cell lines, namely, hepatocellular carcinoma (HepG-2), colorectal carcinoma (HCT-116), and human breast adenocarcinoma (MCF-7). Doxorubicin was used in this test as a positive control.
# Anti-proliferative activity of the synthesised compounds was estimated using the MTT assay protocol[8]^,[38–40] as shown in Supplementary data.
# 4.2.1. In vitro anti-proliferative activity against MCF-7, HepG-2 and HCT-116 The cells were cultured in RPMI-1640 medium supplemented with 10% fetal bovine serum (FBS), penicillin (100 unit /mL) and streptomycin sulphate (100µg/mL) at 37 °C in a 5% CO2 incubator.
# Then, cells were dropped in 96-well plates at a density of 3-8 × 10^3 cells/well and incubated for two days in a 5% CO2 incubator at 37 °C. Then, the cells were treated with the synthesized compounds and the cell cultures were continued incubated for 24 h. However, Different concentrations of the compound under test (0.0, 5.0, 12.5, 25.0 and 50 mg/ml) were added to the cell monolayer. Then, (3-[4,5-dimethylthiazol-2-yl]- 2,5-diphenyltetrazolium bromide) MTT solution (20 µl, 5mg/mL) was added to each well and incubated for additional 4 h. The formed purple crystals of MTT-formazan were dissolved in 100 µl DMSO each well; the absorbance of each well was measured at 570 nm using a plate reader (EXL 800, USA). All of the compounds were tested three times. The relative cell viability in percentage was calculated. The results for IC50 values of the active compounds are […]
# (§1) The data represented the mean of three independent experiments in triplicate and were expressed as means ± SD. […]
# of the cells could survive. […]
# [2] = tested on: Calf thymus DNA; assay: DNA intercalation assay (DNA/methyl green colorimetric assay); format: binding; conditions: three independent experiments
# Procedure: as §1
# 4.2.2. DNA intercalation assay (DNA/methyl green colorimetric assay)
# Affinity of some compounds for DNA-binding was examined in vitro using DNA/methyl green assay using doxorubicin as a positive control. In this test, a mixture of methyl green (20 mg) and Calf thymus DNA (10 mg) (Sigma– Aldrich) were suspended in 0.05 M TrisHCl buffer (100 mL, pH 7.5) containing 7.5 mM MgSO4. This mixture was stirred continuously for 24 h at 37 °C. Then, ethanolic solution of the test compounds was pitted into the wells of a 96-well microtiter tray at a concentration of 10, 100 and 1000 µM. The excess solvent was removed from each well under vacuum, with subsequent addition of 200 µL of the DNA/methyl green solution. The test samples were incubated for 24 h in dark at ambient temperature. After that, absorbance of each sample was determined at 642.5–645 nm. In this test, the methyl green dye reversibly binds to DNA to form persistent colored complex of DNA/methyl green. This color still stables at neutral pH. When the DNA intercalators were added, the methyl green was displaced from DNA with addition of H2O molecule to the dye resulting in formation of the colorless carbinol leading to a decrease in spectrophotometric absorbance. ΔA value (the difference between DNA/methyl green complex and free cabinol) provides the simplest means for detecting the DNA-binding affinity and relative binding strength. IC50′s were determined by linear regression of data plotted on a semi -log scale and the data were compared with doxorubicin as standard DNA intercalator . […]
# [3] = tested on: Solid Ehrlich Carcinoma (SEC); assay: In vivo antitumor activity against Solid Ehrlich Carcinoma; parameters: species or system Swiss albino mice; conditions: SEC-bearing mice, 5 mg/kg BW I.P.
# Procedure: To examine the in vivo anticancer activity of compound 9d, adult female Swiss albino mice (30 mice) inoculated with I.P. injection of Solid Ehrlich Carcinoma (SEC) tumour cell lines in a volume of 0.2 ml physiological saline contains 1 × 10^6 viable cells for 24 h.
# These mice were randomly divided into four groups (7 mice/group). […] Bodyweight and survival were recorded daily until the 24th day in both treated and control groups. At the end of the experiment, the blood of each group was collected under light anaesthesia for the estimation of hematological and biochemical assays. The anaesthetised animals were then sacrificed to evaluate of the antitumor activity and to conduct hematological, biochemical, and histopathological assays, Figure 3.
# Adult female Swiss albino mice purchased from Theodor Bilharzia Research Institute, Giza, Egypt, with an average bodyweight of (18–23) g were used. Mice were housed under constant conditions of 12 h light/dark cycle in a […], with free access to standard laboratory mice food and water. All procedures related to care and maintenance of the animals were performed according to the international guiding principles for animal research and approved by the Faculty of Science, Suez Canal University bioethics and animal ethics committee (Approval number REC-07–2021).
# Solid Ehrlich carcinoma (SEC) was purchased from the National Cancer Institute (Cairo University, Egypt). The tumour cell line was proliferated in mice through serial intraperitoneal (I.P.) transplantation of a volume of 0.2 ml physiological saline contains 1 × 10^6 viable cells for 24 h. SEC cells were collected 7 days after I.P. implantation. The harvested cells were diluted with saline to obtain a concentration of 5 × 10^6 viable SEC cells/mL. A volume of 0.2 ml saline contains 1 × 10^6 SEC cells that were I.P. implanted into each normal mouse. SEC cells (1 × 10^6 tumour cells/mouse) were implanted subcutaneously into the right thigh of the hind limb.
# The experimental animals were randomly divided into four groups. Group 1 served as the normal saline control (5 ml/kg B.Wt., I.P.). Group 2 served as the SEC control (1 × 10^6 cells/mouse). Group 3 served as the compound-treated group (5 mg/kg B.Wt., I.P.). […] Bodyweight and survival were recorded daily until the 24th day in both treated and control groups. At the end of the experiment, the blood of each group was collected under light anaesthesia to the estimate of hematological and biochemical assays. The anaesthetised animals were then sacrificed for evaluation of the antitumor activity and histopathological examination.
# It includes tumour volume, weight, and tumour inhibition ratio (TIR%). Time interval measurements of tumour volume using digital Vernier calliper (Tricle Brand, Shanghai, China). Measure tumour length and width using a clipper and then calculate tumour volume using formulations V = (L × W × W)/2, where V is tumour volume, W is tumour width, L is tumour length. While TIR% was calculated according to the following equation Tumor volume (Control)−Tumor volume (treated)/Tumor volume (control)× 100.
compound,measurement,setting,value
"CCCc1nnc2c3ccccc3c(NN=Cc3ccc([N+](=O)[O-])cc3)nn12 [Compound 9d, 6-[2–(4-Nitrobenzylidene)hydrazineyl]-3-propyl-[1,2, 4]triazolo[3,4-a]phthalazine]",IC50,[1],4.95 ± 0.1 µM
same,IC50,[2],26.2 ± 1.14 µM
same,tumour volume,[3],19 mm^3
same,reduction of the increase in solid tumour mass,[3]; compared to SEC control,63.4%
same,solid tumour mass,[3]; SEC control 194 mg,71 mg
same,tumour inhibition ratio (TIR) %,"[3]; from tumour volume, compared to control",64.5%
